From patent publication US5030760A, “Tetrahydrophthalimides, and their production and use” (Sumitomo Chemical Company, Ltd., priority 1981, dated 1991)

How the values were obtained:
Settings in all cases: 3 weeks
barnyardgrass = experiment: Test Example 7, flooded paddy pot dripping, herbicidal activity; format: in vivo, Echinochloa crus-galli
Procedure: (§1) The application of the tetrahydrophthalimides (I) as herbicides will be illustratively shown in the following Examples wherein the phytotoxicity to cultivated plants and the herbicidal activity on weeds were evaluated as follows: the aerial parts of the test plants were cut off and weighed (fresh weight); the percentage of the fresh weight of the treated plant to that of the untreated plant was calculated with the latter fresh weight taken as 100; and the crop damage and the herbicidal activity were evaluated by the standard given in the table below. The rating values of phytotoxicity, 0 and 1, and those of herbicidal effect, 5 and 4, are generally regarded as satisfactory to protect cultivated plants and control weeds, respectively. The rating values in the paddy field test alone were calculated from the dry weight of the test plants.
(§2) Wagner's pots (1/5000 are) were filled with paddy field soil and water was poured therein to make a flooded condition. Rice seedlings of the 3-leaf stage were transplanted and tubers of slender spikerush and arrowhead and the seeds of barnyardgrass, monochoria and broad-leaved weed were sowed therein and grown for 5 days. When germination occurs, a designed amount of the test compound formulated into an emulsifiable concentrate according to Preparation Example 2 was applied to the pots by dripping. The test plants were grown for a further 3 weeks, and herbicidal activity and phytotoxicity were examined. The herbicidal activity was evaluated in figures ranging from 0 to 5. The phytotoxicity to the crop plants was also indicated on the same standard as that of the herbicidal activity.

rice plant = experiment: Test Example 7, flooded paddy pot dripping, phytotoxicity to rice plant; format: in vivo
Procedure: as §1, §2

arrowhead = experiment: Test Example 7, flooded paddy pot dripping, herbicidal activity; format: in vivo, Sagittaria pygmaea
Procedure: as §1, §2

monochoria = experiment: as above; format: in vivo, Monochoria vaginalis
Procedure: as §1, §2
Also: ranges in brackets are in %.

O=C1C2=C(CCCC2)C(=O)N1c1ccc(Cl)cc1F [A, 2-fluoro-4-chlorophenyltetrahydrophthalimide, reference compound]
Herbicidal activity, Barnyardgrass (barnyardgrass; 2.5 g/are): 1 (10-29) | Herbicidal activity, Barnyardgrass (barnyardgrass; 5 g/are): 3 (50-69) | Herbicidal activity, Barnyardgrass (barnyardgrass; 10 g/are): 4 (70-89) | Phytotoxicity, Rice plant (rice plant; 2.5 g/are): 1 (10-29) | Phytotoxicity, Rice plant (rice plant; 5 g/are): 1 (10-29) | Phytotoxicity, Rice plant (rice plant; 10 g/are): 2 (30-49) | Herbicidal activity, Allowhead (arrowhead; 2.5 g/are): 2 (30-49) | Herbicidal activity, Allowhead (arrowhead; 5 g/are): 3 (50-69) | Herbicidal activity, Allowhead (arrowhead; 10 g/are): 3 (50-69) | Herbicidal activity, Monochoria (monochoria; 2.5 g/are): 4 (70-89) | Herbicidal activity, Monochoria (monochoria; 5 g/are): 5 (90-100) | Herbicidal activity, Monochoria (monochoria; 10 g/are): 5 (90-100)
